Blank lines part the entries; values can stand above or below the compound they belong to.
Experiments:
[1] = administration to mice; cited from earlier work
[2] = system: UT-B; conditions: cited from earlier work
[3] = cited from earlier work
[4] = microsomal stability with rat liver microsomes and NADPH, LCMS analysis; type: in vitro ADME; conditions: liver microsomes
[5] = target: T1, UT-B (Homo sapiens, UniProt Q13336); assay: erythrocyte lysis assay for UT-B inhibition; type: cell-based, mouse
T1 sequence (Q13336 1-389): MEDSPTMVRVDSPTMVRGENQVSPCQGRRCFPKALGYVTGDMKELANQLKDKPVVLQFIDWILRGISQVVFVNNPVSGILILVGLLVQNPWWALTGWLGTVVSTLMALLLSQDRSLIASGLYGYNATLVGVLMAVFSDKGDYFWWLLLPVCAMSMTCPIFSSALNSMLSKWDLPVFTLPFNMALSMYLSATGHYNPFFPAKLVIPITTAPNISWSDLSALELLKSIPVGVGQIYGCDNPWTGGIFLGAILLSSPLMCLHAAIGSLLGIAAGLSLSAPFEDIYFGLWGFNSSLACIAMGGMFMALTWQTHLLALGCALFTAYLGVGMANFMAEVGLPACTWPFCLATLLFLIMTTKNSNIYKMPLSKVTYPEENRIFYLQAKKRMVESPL

[6] = IC50 (inhibitory potency, abstract), UT-B inhibition
[7] = IC50 (UT-B inhibition activity), mouse erythrocyte lysis assay (n = 3), fit to single-site saturation model

SMILES: CCc1ccc(S(=O)(=O)c2nnn3c2nc(NCc2cccs2)c2sccc23)cc1 [Compound 1a]
- effect on urine osmolality [1]: reduced urine osmolality
- effect on urine output [1]: increased urine output
- mechanism of UT-B inhibition [2]: competitive mechanism
- microsomal degradation / hepatic oxidation [3]: underwent rapid oxidation by hepatic enzymes

SMILES: CC(F)(F)c1ccc(S(=O)(=O)c2nnn3c2nc(NCc2cccs2)c2sccc23)cc1 [Compound 1c]
- remaining at 0.5 h [4]: 96%
- microsomal degradation / hepatic oxidation [3]: resisted microsomal degradation

- IC50 [5, 6]: ~40 nM
SMILES: Cc1csc(CNc2nc3c(S(=O)(=O)c4ccc(C(C)(F)F)cc4)nnn3c3ccsc23)c1 [Compound 4a]

- IC50 [5, 6]: ~40 nM
SMILES: CC(F)(F)c1ccc(S(=O)(=O)c2nnn3c2nc(NCc2ccsc2)c2sccc23)cc1 [Compound 4b]

- IC50 [5, 7]: > 800 nM
SMILES: CC(F)(F)c1ccc(S(=O)(=O)c2nnn3c2nc(NCc2ccccc2)c2sccc23)cc1 [Compound 4d]

- IC50 [5, 7]: > 800 nM
SMILES: CC(F)(F)c1ccc(S(=O)(=O)c2nnn3c2nc(NCC2CC2)c2sccc23)cc1 [Compound 4e]

- IC50 [5, 7]: > 800 nM
SMILES: CC(F)(F)c1ccc(S(=O)(=O)c2nnn3c2nc(NCC2CCC2)c2sccc23)cc1 [Compound 4f]

Source: article PMC3954708 (Bioorganic & medicinal chemistry letters, 2013)
